According to patent US11434255B2, “Nucleoside and nucleotide analogues bearing a quaternary all-carbon stereogenic center at the 2′ position and methods of use as a cardioprotective agent” (LCB PHARMA INC., priority 2016, dated 2022):
Where two headings read alike, the source gives them in different places.

Assays:
primary cardiomyocytes [1] = experiment: TUNEL assay, primary cardiomyocytes treated with 3 μM Doxorubicin for 6 hours (Table 1); type: cell-based; conditions: Cardiomyocyte
Experimental: (§1) Primary cardiomyocyte monologues covered by serum free media (SF) were treated with DMSO (vehicle), Doxorubicin (DOX) (300 nM), Imatinib (Imat) (5 μM), and/or LCB2122 at varying concentrations (0.1, 0.5, 1.5 at 10 μM) diluted in SF for 3, 6, 18 or 24 hours. The TUNEL assay (Terminal Deoxynucleotidyltransferase mediated dUTP End Labeling) was utilized to detect apoptotic nuclei using an Apop Tag Red in Situ Apoptosis Detection Kit (Millipore, Temecula, Calif.). A Zeis fluorescent microscope was used for image acquisition. Cell counting was done using the Imager® Software.
The cardioprotective profile of LCB2122, LC2165, LCB2191 and LCB2177 were also investigated. As above, primary cardiomyocytes were treated with 3 μM of Doxorubicin for 6 hours alone or with the above compounds of the invention. The TUNEL assay was utilized to detect apoptotic nuclei. […] LCB2165, LCB2191 and LCB2177 were also active with IC50's of 5 μM.

primary cardiomyocytes [2] = experiment: TUNEL assay, DOX-induced apoptosis in primary cardiomyocyte monolayers; type: cell-based
Experimental: as §1

heart cardiomyocytes = experiment: TUNEL assay on heart sections of DOX-treated mice; type: in vivo; conditions: after 2 weeks, FIG. 11
Experimental: (§2) Mice were handled in accordance with institutional guidelines for animal care. Experiments were approved by the institutional Animal Care Committees and the investigation conforms with the Guide for the Care and Use of Laboratory Animals published by the US National Institutes of Health (NIH Publication N. 85-23, revised 1985). Doxorubicin treatment was a single ip injection of 5 or 15 mg/kg as previously described by Aries et al.^6 ALZET micro-osmotic pumps (Model 1002, 0.25 μl/hr, 14 days) were filled with DMSO, Ang II (0.5 μgKg/day) LCB2122 (2.0 or 2.8 μg/Kg/day) diluted in normal saline and inserted subcutaneously in mice for two weeks. M-mode echocardiography was performed using Visual-Sonics VEVO 2100 system and 30-MHz linear array transducer, on lightly anesthetized mice using […], 80 ml/min of 100% oxygen, as described by Aries et al. and echocardiographic indices were calculated as described by Yang et al.^17 Heart failure was defined as EF<45%.
After these 2 weeks, heart cardiomyocytes were also tested by TUNEL assay (on heart sections).

[3] = test system: atrial natriuretic factor (ANF); experiment: ANF transcript QPCR on ventricles of WT and AT1R mice; type: in vivo; conditions: 2.0 μg/Kg/day, 4 weeks, FIG. 13a
From the text: The massive ANF upregulation seen in AT1R mice usually indicative of cardiac stress is attenuated in LCB2122 treated AT1R mice.

primary cardiomyocytes [4] = experiment: TUNEL assay, Imatinib-induced apoptosis in primary cardiomyocytes; type: cell-based; conditions: Cardiomyocyte, 6 hours, FIG. 6, read-out: EC50, prevention of apoptosis induced by Imatinib
Experimental: as §1

AT1R mice = experiment: Echocardiography in AT1R transgenic (heart failure model) and wild-type mice; type: in vivo
Experimental: as §2
Transgenic mice overexpressing the human angiotensin II type 1 receptor^7 (AT1R) under the control of the mouse α-myosin heavy chain were generated. These mice are a model of human HF. Cardiomyocyte specific overexpression induced in basal conditions overtime, morphologic changes that mimic those observed during the development of cardiac hypertrophy in humans. In order words, these mice develop age-dependent HF.
All AT1R mice had EF % less than 40%, similar to HF patients in human. […] LCB2122 treated AT1R mice (2.0 μg/kg/day for 4 weeks) had their cardiac functions improved as opposed to untreated mice. […] The data shown are the individual values of each mouse at weeks 0 and 4. All WT mice had normal EF % independent of LCB2122 treatment throughout the study. All AT1R mice were in HF prior to any treatment.

[5] = test system: HepG2 human cancer cell line; experiment: Cell Titer Glo growth inhibition, DOX +/- LCB2122; type: cell-based
From the text: Indeed, the IC50 of DOX in HepG2 human cancer cell line was identical in the absence or presence of LCB2122. FIG. 8 is a plot representing the percent growth inhibition as measured by Cell Titer Glo assays done on HepG2 cells treated with varying concentrations of DOX+/−LCB-2122 ([…]).

[6] = test system: atrial natriuretic factor (ANF); experiment: ANF ELISA on blood plasma of WT and AT1R mice; type: in vivo; conditions: 2.0 μg/Kg/day, 4 weeks, FIG. 13b
Experimental: FIG. 13b) quantification of an ANF ELISA assay done on blood plasma samples from vehicle and LCB2122 (2.0 μg/Kg/day, 4 weeks) treated WT and AT1R mice ventricles. Once again, the increase in ANF plasma levels was attenuated in the LCB2122 treated AT1R mice.

cardiomyocytes = experiment: Sarcomeric alpha-actinin immunofluorescence on cardiomyocytes; type: cell-based; conditions: 5 uM, six hours, FIG. 7
Experimental: Immunofluorescence were performed on cardiomyocytes as previously described,^16 using a sarcomeric alpha-Actinin antibody (1/500).
FIG. 7 is a micrograph showing α-actinin immunostaining (straight lines) of 2% PFA-fixed cardiomyocytes treated with a) vehicle (DMSO) or b) LCB2122 (5 uM) for six hours. […] White spots mark the nuclei.

[7] = test system: wild type mice, DOX-induced toxicity; experiment: In vivo echocardiography in DOX-treated mice
Experimental: as §2

## CCOP(=O)(OCC)OC[C@H]1O[C@@H](n2cnc3c(N)nc(Cl)nc32)[C@](C)(COCc2ccccc2)[C@@H]1O [LCB2165, ((2R,3S,4R,5R)-5-(6-amino-2-chloro-9H-purin-9-yl)-4-((benzyloxy)methyl)-3-hydroxy-4-methyltetrahydrofuran-2-yl)methyl diethyl phosphate]
Primary cardiomyocytes [1]; 6 h
  IC50: 5 µM

## C#CCOc1ccc(C(=O)c2ccc(C(=O)OC[C@]3(C)[C@H](O)[C@@H](COP(=O)(OCC)OCC)O[C@H]3n3cnc4c(N)nc(Cl)nc43)cc2)cc1 [LCB2191, ((2R,3R,4S,5R)-2-(6-amino-2-chloro-9H-purin-9-yl)-5-(((diethoxyphosphoryl)oxy)methyl)-4-hydroxy-3-methyltetrahydrofuran-3-yl)methyl 4-(4-(prop-2-yn-1-yloxy)benzoyl)benzoate]
Primary cardiomyocytes [1]; 6 h
  IC50: 5 µM

## CCOP(=O)(OCC)OC[C@H]1O[C@@H](n2cnc3c(N)nc(Cl)nc32)[C@](C)(CO)[C@@H]1O [LCB2122, ((2R,3S,4R,5R)-5-(6-amino-2-chloro-9H-purin-9-yl)-3-hydroxy-4-(hydroxymethyl)-4-methyltetrahydrofuran-2-yl)methyl diethyl phosphate]
Primary cardiomyocytes [2]; Cardiomyocyte, DOX 300 nM, TUNEL, FIG. 4, read-out: EC50, prevention of DOX-induced apoptotic cell death
  EC50: 0.5 µM
Primary cardiomyocytes [2]; DOX 300 nM, 6 hours, FIGS. 3 and 4
  prevention of DOX-induced apoptotic cell death: completely prevented DOX-induced apoptotic cell death
Primary cardiomyocytes [2]; DOX 300 nM, at 3, 6 or 24 hours
  DOX-induced apoptosis over time: blocked
Primary cardiomyocytes [2]; time course, any time points, FIG. 5
  induction of apoptosis by the compound alone: did not induce apoptosis
Heart cardiomyocytes
  apoptotic cardiomyocytes (TUNEL, heart sections): significant decrease of apoptotic cardiomyocytes
[3]
  ANF transcript upregulation in ventricles: attenuated
Primary cardiomyocytes [4]
  EC50: 5 µM
AT1R mice; 2.0 μg/kg per day for 4 weeks, FIG. 12
  cardiac function (ejection fraction) in AT1R mice: significant improvement of the cardiac function
AT1R mice; 2.0 μg/kg/day for 4 weeks
  cardiac function of normal (WT) mice: did not alter cardiac function of normal mice
AT1R mice; after four weeks of LCB2122
  share of treated AT1R mice with EF % equal and above 40%: 55%
[5]; HepG2, DOX +/- LCB2122, FIG. 8
  effect on antiproliferative effect of DOX: did not affect the antiproliferative effect of DOX
[5]; up to 4 μM LCB2122
  effect on HepG2 sensitivity to DOX: no effect on HepG2 sensitivity to DOX
Primary cardiomyocytes [1]; 6 h
  IC50: 1 µM
[6]
  increase in ANF plasma levels: attenuated
cardiomyocytes
  cytoskeletal organization and cell size (α-actinin immunostaining): does not alter cytoskeletal organization or cell size
[7]; DOX ip, LCB2122 micropump for two weeks, FIG. 9
  ejection fraction (EF, %) after DOX: protected against DOX-induced toxicity
[7]; wild type mice, DOX, FIG. 10
  left ventricle wall thickness after DOX: protected against this DOX-induced wall thickness

## CC(C)OP(=O)(OC[C@H]1O[C@@H](n2cnc3c(N)nc(Cl)nc32)[C@](C)(CO)[C@@H]1O)OC(C)C [LCB2177, ((2R,3S,4R,5R)-5-(6-amino-2-chloro-9H-purin-9-yl)-3-hydroxy-4-(hydroxymethyl)-4-methyltetrahydrofuran-2-yl)methyl diisopropyl phosphate]
Primary cardiomyocytes [1]; 3 μM Doxorubicin, 6 hours, TUNEL apoptotic nuclei, read-out: IC50
  IC50: 5 µM

## COc1cccc2c1C(=O)c1c(O)c3c(c(O)c1C2=O)C[C@@](O)(C(=O)CO)C[C@@H]3O[C@H]1C[C@H](N)[C@H](O)[C@H](C)O1 [DOX, Doxorubicin, reference compound]
[7]; mice, two weeks after DOX ip injection, FIG. 9
  ejection fraction (EF, %) after DOX alone: decreased significantly
[7]; wild type mice, DOX (5 μg/kg) as printed
  ventricular wall thickness after DOX alone: induced also a loss of ventricular wall thickness
